According to ChEMBL document CHEMBL1201862, “PubChem BioAssay data set” (2004):
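The compound was tested at five concentrations on cells cultured in 96-well plates, with a 48-hour exposure period. Here, GI50 denotes the concentration required for 50% inhibition of growth.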 Activity calls are given as the source filed them. No stated cut-off is given here; in the data, active = GI50 up to about 1.1 µM and inactive = higher.

What was measured:
Experiment in all cases: NCI tumour cell line growth inhibition, 48 h
[1] = system: XF498
[2] = system: KM-20L2
[3] = system: NCI-H460
[4] = system: UACC-62
[5] = system: IGROV-1
[6] = system: 786-0
[7] = system: TK-10
[8] = system: Hs-578T
[9] = system: CCRF-CEM
[10] = system: SK-MEL-28
[11] = system: DU-145
[12] = system: HCT-116
[13] = system: OVCAR-3
[14] = system: SK-MEL-5
[15] = system: MOLT-4
[16] = system: HT-29
[17] = system: SF-295
[18] = system: PC-3
[19] = system: COLO 205
[20] = system: SK-MEL-2

Row | Structure (SMILES) | GI50 [1] | GI50 [2] | GI50 [3] | GI50 [4] | GI50 [5] | GI50 [6] | GI50 [7] | GI50 [8] | GI50 [9] | GI50 [10] | GI50 [11] | GI50 [12] | GI50 [13] | GI50 [14] | GI50 [15] | GI50 [16] | GI50 [17] | GI50 [18] | GI50 [19] | GI50 [20]
1 | CC[n+]1c(/C=C/c2ccc(N(CCCl)CCCl)cc2)ccc2cc(NC(=O)/C=C/c3ccccc3)ccc21 | 0.205 µM (active) | 0.483 µM (active) | 0.245 µM (active) | 0.646 µM (active) | 0.31 µM (active) | 0.336 µM (active) | 2.95 µM (inactive) | 0.0912 µM (active) | 0.118 µM (active) | 0.762 µM (active) | 0.288 µM (active) | 0.317 µM (active) | 1.75 µM (inactive) | 0.174 µM (active) | 0.286 µM (active) | 0.344 µM (active) | 0.45 µM (active) | 0.402 µM (active) | 0.104 µM (active) | 0.431 µM (active)
2 | O=C1C(Br)=C(c2ccccc2)C(c2ccccc2)=C1c1ccccc1 | 1.81 µM (inactive) | 4.78 µM (inactive) | 4.83 µM (inactive) | 2.38 µM (inactive) | 4.28 µM (inactive) | 1.95 µM (inactive) | 3.42 µM (inactive) | 13.7 µM (inactive) | 0.269 µM (active) | 2.61 µM (inactive) | 13.2 µM (inactive) | 1.9 µM (inactive) | 2.61 µM (inactive) | 2.94 µM (inactive) | 0.601 µM (active) | 2.28 µM (inactive) | 10.9 µM (inactive) | 4.1 µM (inactive) | 1.87 µM (inactive) | 4.41 µM (inactive)
3 | CCOC(=O)NC(=O)c1cn(CCCOC(=O)CCCCCCCCCCC(=O)OCCCn2cc(C(=O)NC(=O)OCC)c(=O)[nH]c2=O)c(=O)[nH]c1=O | > 100 µM (inactive) | > 100 µM (inactive) | > 100 µM (inactive) | > 100 µM (inactive) | > 100 µM (inactive) | > 100 µM (inactive) | > 100 µM (inactive) | – | > 100 µM (inactive) | > 100 µM (inactive) | – | > 100 µM (inactive) | > 100 µM (inactive) | > 100 µM (inactive) | > 100 µM (inactive) | > 100 µM (inactive) | > 100 µM (inactive) | – | > 100 µM (inactive) | > 100 µM (inactive)
4 | CC(C)OP(=O)(OC(C)C)/C(N)=N/Nc1ccc([N+](=O)[O-])cc1 | 23.5 µM (inactive) | > 100 µM (inactive) | 41.7 µM (inactive) | 83 µM (inactive) | – | > 100 µM (inactive) | 27 µM (inactive) | – | 98.2 µM (inactive) | > 100 µM (inactive) | – | 86.3 µM (inactive) | > 100 µM (inactive) | 60.1 µM (inactive) | 52.1 µM (inactive) | – | – | – | > 100 µM (inactive) | > 100 µM (inactive)
5 | O=C(Cc1nc2ccccc2s1)Nc1cccc(C(F)(F)F)c1 | 14.8 µM (inactive) | 20.4 µM (inactive) | 15.8 µM (inactive) | 12.6 µM (inactive) | 13 µM (inactive) | 14.2 µM (inactive) | 21.2 µM (inactive) | – | 1.81 µM (inactive) | 15 µM (inactive) | – | – | 17.6 µM (inactive) | 16.5 µM (inactive) | 6.89 µM (inactive) | 17.1 µM (inactive) | 16.2 µM (inactive) | – | 17 µM (inactive) | 18.5 µM (inactive)
6 | COc1cc2c(c(OC)c1OC)-c1ccc(OC)c(=O)cc1[C@@H](NC(=O)c1ccccc1)CC2 | < 0.01 µM (active) | < 0.01 µM (active) | – | < 0.0113 µM (active) | 0.0146 µM (active) | 0.0184 µM (active) | 0.17 µM (active) | < 0.0126 µM (active) | < 0.01 µM (active) | 1.86 µM (inactive) | 0.0199 µM (active) | 0.0126 µM (active) | < 0.0103 µM (active) | 0.0107 µM (active) | 0.0562 µM (active) | 0.0114 µM (active) | 0.0136 µM (active) | 0.0169 µM (active) | < 0.01 µM (active) | 0.012 µM (active)
